Assay results published in US5270047A, “Local delivery of dipyridamole for the treatment of proliferative diseases” (priority 1991, dated 1993).
Entries after “also recorded” stand apart in the source; their conditions may differ.

Assays:
[1] = system: balloon-injured left common carotid arteries; test: Effect of local adventitial dipyridamole upon intimal thickening after balloon injury of the left common carotid artery; type: in vivo, male Sprague-Dawley rats; conditions: 600 μg/day, fourteen days
Procedure: Balloon injury to the left common carotid arteries of male Sprague-Dawley rats (350-400 g) was accomplished by three passes of an inflated 2F Fogarty balloon catheter as described by Clowes et al., Lab Invest. 49:208-215 (1983). Animals were anesthetized with Ketamine (80 mg/kg, intramuscular) and Rompun (16 mg/kg, intramuscular). Entry of the balloon catheter to the left common carotid artery was made via a nick in the external carotid artery, which was tied off at the end of the surgical procedure. Continuous local delivery of dipyridamole was accomplished by means of a minosmotic pump implanted subcutaneously in the back of the rat. […]
Fourteen days post surgery, animals were anesthetized (vide supra) and perfused through the abdominal aorta in a retrograde manner at physiological pressure with a zinc formalin fixative (Anatech LTD., Battle Creek, Mich.). […] Three adjacent cross sections (5 μm thick) of each vessel were cut, stained with hematoxylin and eosin, and cross-sectional intimal areas quantitated with an image analyzer (Quantimet 970, Cambridge Inst., Cambridge, UK).
The difference between intimal areas of drug-treated vs. control groups were analyzed for statistical significance using Student's t-test as described in Tallarida et al., Manual of Pharmacologic Calculations with Computer Programs, Springer-Verlag, New York, 1981, p. […]

vascular restenosis = conditions: systemic administration; patients; cited from earlier work
[2] = system: Smooth muscle cells from rabbit aorta; test: Inhibition of DNA synthesis (3H thymidine incorporation) induced by PDGF, FGF or EGF; type: cell-based; conditions: for inhibition at 0.08 µg/mL / inhibition at 0.15 µg/mL / inhibition at 0.32 µg/mL / inhibition at 0.64 µg/mL / inhibition at 1.2 µg/mL / inhibition at 2.5 µg/mL: Oryctolagus cuniculus, Platelet, 24 h, 1% platelet poor plasma; for inhibition at 0.08 µg/mL: dipyridamole 0.08 μg/ml; for inhibition at 0.15 µg/mL: dipyridamole 0.15 μg/ml; for inhibition at 0.32 µg/mL: dipyridamole 0.32 μg/ml; for inhibition at 0.64 µg/mL: dipyridamole 0.64 μg/ml; for inhibition at 1.2 µg/mL: dipyridamole 1.2 μg/ml; for inhibition at 2.5 µg/mL: dipyridamole 2.5 μg/ml
Procedure: Dipyridamole inhibits smooth muscle cell proliferation induced by multiple growth factors. Smooth muscle cells from rabbit aorta (derived by explant method) were seeded in 96 well tissue culture plates in DMEM containing 10% fetal bovine serum, 2 mM L-glutamine, 100 U/ml penicillin and 100 μg/ml streptomycin. Growth arrested, confluent cultures in 96 well microtiter plates were incubated in medium containing 1% platelet poor plasma, 2 mM L-glutanime, 100 U/ml penicillin, 100 μg/ml streptomycin, 20 ng/ml PDGF, 3 ng/ml EGF (Genzyme), 3 ng/ml FGF (Genzyme), 1 μci/ml ^3 H thymidine and indicated concentrations of dipyridamole. Cells were incubated at 37° C. for 24 hours under 5% CO2 /95% air. At the end of 24 hours, cells were fixed in methanol. DNA synthesis was determined by ^3 H thymidine incorporation as previously described.

[3] = system: Smooth muscle cells from rabbit aorta; test: Effect of serum concentration on inhibition of PDGF-induced DNA synthesis (3H thymidine incorporation) by dipyridamole; type: cell-based; conditions: for inhibition at 0.04 µg/mL / inhibition at 0.08 µg/mL / inhibition at 0.15 µg/mL / inhibition at 0.3 µg/mL / inhibition at 0.6 µg/mL / inhibition at 1.2 µg/mL / inhibition at 2.5 µg/mL: Oryctolagus cuniculus, 24 h, 40 ng/ml PDGF; for inhibition at 0.04 µg/mL: dipyridamole 0.04 μg/ml; for inhibition at 0.08 µg/mL: dipyridamole 0.08 μg/ml; for inhibition at 0.15 µg/mL: dipyridamole 0.15 μg/ml; for inhibition at 0.3 µg/mL: dipyridamole 0.3 μg/ml; for inhibition at 0.6 µg/mL: dipyridamole 0.6 μg/ml; for inhibition at 1.2 µg/mL: dipyridamole 1.2 μg/ml; for inhibition at 2.5 µg/mL: dipyridamole 2.5 μg/ml
Procedure: Serum reduces the effectiveness of systemically administered dipyridamole as an inhibitor of cell proliferation. […] Growth arrested, confluent cultures in 96 well microtiter plates were incubated in medium containing 1%, 5% or 20% serum (Hyclone Laboratories, Logan, Utah), 2 mM L-glutamine, 100 U/ml penicillin, 100 μg/ml streptomycin, 40 ng/ml PDGF (Genzyme, Cambridge, Mass.), 1 μci/ml ^3 H thymidine (DuPont, Boston, Mass.) and indicated concentrations of dipyridamole (Sigma Chemical, St. Louis, Mo.). Cells were incubated at 37° C. for 24 hours under 5% CO2 /95% air. At the end of 24 hours, cells were fixed in methanol and DNA synthesis was determined by ^3 H thymidine incorporation as described in Bonin et al., Exp. Cell Res. 181, 475-482 (1989).

[4] = system: balloon-injured rat carotid arteries; test: Effect of systemic (dietary) dipyridamole upon intimal thickening after balloon injury of the left common carotid artery; type: in vivo, male Sprague-Dawley rats; conditions: two weeks; for Area of Intimal Thickening: control 0.120 ± 0.014
Procedure: Balloon injury to the left common carotid arteries of male Sprague-Dawley rats (350-400 g) was accomplished by three passes of an inflated 2F Fogarty balloon catheter (Baxter Healthcare, McGaw Park, Ill.) as described by Clowes et al., Lab Invest. 49:208-215 (1983). Animals were anesthetized with Ketamine (80 mg/kg, intramuscular, Aveco, Ft. Dodge, Iowa) and Rompun (16 mg/kg, intramuscular, Mobay Corp., Shawnee, Kans.). Entry of the balloon catheter to the left common carotid artery was made via a nick in the external carotid artery, which was tied off at the end of the surgical procedure. Dipyridamole was systemically administered for two weeks (0.03 and 0.10% wt/wt, as an admixture in the diet, equivalent to approximately 30 and 100 mg/kg/day, respectively).

[5] = 0.03% in diet wt/wt (approximately 30 mg/kg/day)
[6] = 0.10% in diet wt/wt (approximately 100 mg/kg/day)

For `OCCN(CCO)c1nc(N2CCCCC2)c2nc(N(CCO)CCO)nc(N3CCCCC3)c2n1` [Dipyridamole, 2,6-bis(diethanolamino)-4,8-dipiperidinopyrimido[5,4-d]pyrimidine], the “Area of Intimal Thickening (% of control)” value (“Area … (% of control)” below) ([1]; P < 0.05 vs. control) is given as 67.4 % of control, the “Area of Intimal Thickening” value ([1]; vehicle 0.129 ± 0.013, P < 0.05 vs. control) is given as 0.087 ± 0.011 mm^2 and the “effect in treating or preventing vascular restenosis” value (vascular restenosis) is given as “ineffective; also recorded: ineffective in treating or preventing vascular restenosis in patients”. It also gave an inhibition at 0.08 µg/mL ([2]; EGF (3 ng/ml)) of 68%, an inhibition at 0.15 µg/mL ([2]; EGF (3 ng/ml)) of 76% and an inhibition at 0.32 µg/mL ([2]; EGF (3 ng/ml)) of 85%. The inhibition at 0.64 µg/mL ([2]; EGF (3 ng/ml)) was 90%, the inhibition at 1.2 µg/mL ([2]; EGF (3 ng/ml)) was 94% and the inhibition at 2.5 µg/mL ([2]; EGF (3 ng/ml)) was 96%. It also gave an inhibition at 0.08 µg/mL ([2]; FGF (3 ng/ml)) of 67%, an inhibition at 0.15 µg/mL ([2]; FGF (3 ng/ml)) of 74% and an inhibition at 0.32 µg/mL ([2]; FGF (3 ng/ml)) of 80%. It also gave an inhibition at 0.64 µg/mL ([2]; FGF (3 ng/ml)) of 87%, an inhibition at 1.2 µg/mL ([2]; FGF (3 ng/ml)) of 92% and an inhibition at 2.5 µg/mL ([2]; FGF (3 ng/ml)) of 93%. For the same compound, the inhibition at 0.08 µg/mL ([2]; PDGF (20 ng/ml)) was 64%, the inhibition at 0.15 µg/mL ([2]; PDGF (20 ng/ml)) was 71% and the inhibition at 0.32 µg/mL ([2]; PDGF (20 ng/ml)) was 82%. For the same compound, the inhibition at 0.64 µg/mL ([2]; PDGF (20 ng/ml)) was 89%, the inhibition at 1.2 µg/mL ([2]; PDGF (20 ng/ml)) was 93% and the inhibition at 2.5 µg/mL ([2]; PDGF (20 ng/ml)) was 96%. The “inhibition of smooth muscle cell proliferation induced by growth factors” value ([2]; PDGF, FGF, and EGF) was “inhibits cell proliferation induced by PDGF, FGF, and EGF”, the “effect of serum on antiproliferative activity” value ([3]; 1%, 5% or 20% serum) was “increasing concentrations of serum attenuate the growth inhibitory effects of dipyridamole” and the inhibition at 0.04 µg/mL ([3]; 1% serum) was 59%. For the same compound, the inhibition at 0.08 µg/mL ([3]; 1% serum) was 70%, the inhibition at 0.15 µg/mL ([3]; 1% serum) was 79% and the inhibition at 0.3 µg/mL ([3]; 1% serum) was 80%. The inhibition at 0.6 µg/mL ([3]; 1% serum) was 86%, the inhibition at 1.2 µg/mL ([3]; 1% serum) was 90% and the inhibition at 2.5 µg/mL ([3]; 1% serum) was 93%. The inhibition at 0.04 µg/mL ([3]; 5% serum) was 52%, the inhibition at 0.08 µg/mL ([3]; 5% serum) was 53% and the inhibition at 0.15 µg/mL ([3]; 5% serum) was 60%. It also gave an inhibition at 0.3 µg/mL ([3]; 5% serum) of 71%, an inhibition at 0.6 µg/mL ([3]; 5% serum) of 80% and an inhibition at 1.2 µg/mL ([3]; 5% serum) of 87%. It also gave an inhibition at 2.5 µg/mL ([3]; 5% serum) of 92%, an inhibition at 0.04 µg/mL ([3]; 20% serum) of 6% and an inhibition at 0.08 µg/mL ([3]; 20% serum) of 0%. It also gave an inhibition at 0.15 µg/mL ([3]; 20% serum) of 33%, an inhibition at 0.3 µg/mL ([3]; 20% serum) of 38% and an inhibition at 0.6 µg/mL ([3]; 20% serum) of 60%. For the same compound, the inhibition at 1.2 µg/mL ([3]; 20% serum) was 74%, the inhibition at 2.5 µg/mL ([3]; 20% serum) was 77% and the “Area … (% of control)” value [4, 5] was 97.6 % of control. For the same compound, the “Area of Intimal Thickening” value [4, 5] was 0.116 ± 0.017 mm^2, the “effect upon intimal thickening in the balloon-injured rat carotid arteries” value ([4]; 0.03 and 0.10% wt/wt in the diet) was “No significant effect upon intimal thickening” and the “Area … (% of control)” value [4, 6] was 90.8 % of control. For the same compound, the “Area of Intimal Thickening” value [4, 6] was 0.109 ± 0.014 mm^2.
